The values that follow come from US8575091B1, “Amylin analogues and pharmaceutical compositions thereof” (Novo Nordisk A/S, priority 2012, dated 2013).

This assay concerns the target T1, human amylin receptor (amylin 3(a) receptor: human calcitonin receptor + RAMP-3) (Homo sapiens, UniProt O60896+P30988).
T1 construct: expressed in transfected cells
T1 sequence (P30988 25-474): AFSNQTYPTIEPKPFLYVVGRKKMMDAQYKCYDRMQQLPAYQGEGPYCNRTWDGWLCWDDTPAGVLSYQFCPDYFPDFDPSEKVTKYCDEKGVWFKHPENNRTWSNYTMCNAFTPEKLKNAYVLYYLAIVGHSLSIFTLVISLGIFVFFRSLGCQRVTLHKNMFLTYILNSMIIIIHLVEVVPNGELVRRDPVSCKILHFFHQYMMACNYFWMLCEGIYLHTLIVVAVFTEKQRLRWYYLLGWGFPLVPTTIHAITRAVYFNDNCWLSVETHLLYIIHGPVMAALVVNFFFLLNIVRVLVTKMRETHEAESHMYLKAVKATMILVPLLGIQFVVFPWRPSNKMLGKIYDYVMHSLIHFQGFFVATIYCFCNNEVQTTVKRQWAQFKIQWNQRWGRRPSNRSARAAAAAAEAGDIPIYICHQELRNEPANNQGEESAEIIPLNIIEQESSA
T1 sequence (O60896 24-148 partner): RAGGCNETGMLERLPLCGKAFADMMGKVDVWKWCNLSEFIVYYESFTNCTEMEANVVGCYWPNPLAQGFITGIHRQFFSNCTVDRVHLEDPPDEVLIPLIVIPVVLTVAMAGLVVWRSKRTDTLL
In words: Assay (II)a functional assay, human amylin receptor (CRE luciferase, BHK cells). It counts as cell-based.

[1] abbreviates: Table 6, human functional selectivity (hCTR EC50 / hAmylin-R EC50).
The mark [2] stands for this setting: Table 6a, human functional selectivity (hCTR EC50 / hAmylin-R EC50), at least 5.
Setting [3] is: Table 6i, hCTR funct. EC50 / hAmylin-R funct. EC50.
Setting [4] is: Table 6j, hCTR funct. EC50 / hAmylin-R funct. EC50.
Setting [5] is: Table 6k, hCTR funct. EC50 / hAmylin-R funct. EC50.

Numbered stars: 1 amine (or outer) side, 2 acyl side, 3 side chain; on linkers, the order of the positions; unused ones are H or OH. Bridge positions count the residues as written; N and C are the ends. Side chains are listed from the residue outwards. Peptide text beside a SMILES is read from it. * marks the point of attachment. C20 diacid = O=C(O)CCCCCCCCCCCCCCCCCCC(=O)*; γGlu = O=C(O)[C@H](CCC(=O)[*:2])N[*:1]; AEEA = NCCOCCOCC(=O)O

Consider `CC[C@H](C)[C@H](NC(=O)[C@H](C)NC(=O)CNC(=O)[C@H](Cc1ccccc1)NC(=O)[C@H](CC(N)=O)NC(=O)[C@@H]1CCCN1C(=O)[C@H](CO)NC(=O)[C@H](CO)NC(=O)[C@H](Cc1c[nH]cn1)NC(=O)[C@H](CCCNC(=N)N)NC(=O)[C@H](CC(C)C)NC(=O)[C@H](Cc1ccccc1)NC(=O)[C@H](CCC(=O)O)NC(=O)[C@H](C)NC(=O)[C@H](CC(C)C)NC(=O)[C@H](CCCNC(=N)N)NC(=O)[C@H](CCC(N)=O)NC(=O)[C@@H](NC(=O)[C@H](C)NC(=O)[C@@H]1CSSC[C@H](NC(=O)[C@@H](N)CCCCNC(=O)CC[C@H](NC(=O)CCCCCCCCCCCCCCCCCCC(=O)O)C(=O)O)C(=O)N[C@@H](CC(N)=O)C(=O)N[C@@H]([C@@H](C)O)C(=O)N[C@@H](C)C(=O)N[C@@H]([C@@H](C)O)C(=O)N1)[C@@H](C)O)C(=O)N1CCC[C@H]1C(=O)N[C@@H](CO)C(=O)N[C@@H](CO)C(=O)N[C@H](C(=O)N[C@@H](CC(N)=O)C(=O)N[C@H](C(=O)NCC(=O)N[C@@H](CCCNC(=N)N)C(=O)N[C@@H](CCC(=O)O)C(=O)N[C@H](C(=O)N[C@@H](Cc1ccc(O)cc1)C(N)=O)[C@@H](C)O)C(C)C)[C@@H](C)O` [Example 108] (H-K([γGlu-C20 diacid])CNTATCATQRLAEFLRHSSPNFGAIPSSTNVGRETY-NH2; disulfide 2-7 (inferred); N-terminus and C-terminus assumed), for which the “Ratio hCT/hAmylin funct.” value under setting [1] amounted to 6.5; the “Ratio hCT/hAmylin funct.” value under setting [2] was 6.5; the “Ratio hCT/hAmylin funct.” value under setting [3] is on record as 6.5; the “Ratio hCT/hAmylin funct.” value under setting [4] is on record as 6.5; the “Ratio hCT/hAmylin funct.” value under setting [5] was 6.5.

On to `CC[C@H](C)[C@H](NC(=O)[C@H](C)NC(=O)CNC(=O)[C@H](Cc1ccccc1)NC(=O)[C@H](CC(N)=O)NC(=O)[C@@H]1CCCN1C(=O)[C@H](CO)NC(=O)[C@H](CO)NC(=O)[C@H](Cc1c[nH]cn1)NC(=O)[C@H](CCCNC(=N)N)NC(=O)[C@H](CC(C)C)NC(=O)[C@H](Cc1ccccc1)NC(=O)[C@H](CC(N)=O)NC(=O)[C@H](C)NC(=O)[C@H](CC(C)C)NC(=O)[C@H](CCCNC(=N)N)NC(=O)[C@H](CCC(N)=O)NC(=O)[C@@H](NC(=O)[C@H](C)NC(=O)[C@@H]1CSSC[C@H](NC(=O)[C@@H](N)CCCCNC(=O)COCCOCCNC(=O)CC[C@H](NC(=O)CCCCCCCCCCCCCCCCCCC(=O)O)C(=O)O)C(=O)N[C@@H](CC(N)=O)C(=O)N[C@@H]([C@@H](C)O)C(=O)N[C@@H](C)C(=O)N[C@@H]([C@@H](C)O)C(=O)N1)[C@@H](C)O)C(=O)N1CCC[C@H]1C(=O)N[C@@H](CO)C(=O)N1CCC[C@H]1C(=O)N[C@H](C(=O)N1CCC[C@H]1C(=O)N[C@H](C(=O)NCC(=O)N[C@@H](CO)C(=O)N[C@@H](CC(N)=O)C(=O)N[C@H](C(=O)N[C@@H](Cc1ccc(O)cc1)C(N)=O)[C@@H](C)O)C(C)C)[C@@H](C)O` [Example 54] (H-K([AEEA-γGlu-C20 diacid])CNTATCATQRLANFLRHSSPNFGAIPSPTPVGSNTY-NH2; disulfide 2-7; N-terminus assumed), for which the “Ratio hCT/hAmylin funct.” value is listed as 9.6 under setting [1], 9.6 under setting [2], 9.6 under setting [4] and 9.6 under setting [5].

On to `CC[C@H](C)[C@H](NC(=O)[C@H](C)NC(=O)CNC(=O)[C@H](Cc1ccccc1)NC(=O)[C@H](CC(N)=O)NC(=O)[C@@H]1CCCN1C(=O)[C@H](CO)NC(=O)[C@H](CO)NC(=O)[C@H](Cc1c[nH]cn1)NC(=O)[C@H](CCCNC(=N)N)NC(=O)[C@H](CC(C)C)NC(=O)[C@H](Cc1ccccc1)NC(=O)[C@H](CCC(=O)O)NC(=O)[C@H](C)NC(=O)[C@H](CC(C)C)NC(=O)[C@H](CCCNC(=N)N)NC(=O)[C@H](CCC(N)=O)NC(=O)[C@@H](NC(=O)[C@H](C)NC(=O)[C@@H]1CSSC[C@H](NC(=O)[C@H](CCCCN)NC(=O)CC[C@H](NC(=O)CCCCCCCCCCCCCCCCCCC(=O)O)C(=O)O)C(=O)N[C@@H](CC(N)=O)C(=O)N[C@@H]([C@@H](C)O)C(=O)N[C@@H](C)C(=O)N[C@@H]([C@@H](C)O)C(=O)N1)[C@@H](C)O)C(=O)N1CCC[C@H]1C(=O)N[C@@H](CO)C(=O)N[C@@H](CO)C(=O)N[C@H](C(=O)N[C@@H](CC(N)=O)C(=O)N[C@H](C(=O)NCC(=O)N[C@@H](Cc1c[nH]cn1)C(=O)N[C@@H](CC(N)=O)C(=O)N[C@H](C(=O)N[C@@H](Cc1ccc(O)cc1)C(N)=O)[C@@H](C)O)C(C)C)[C@@H](C)O` [Example 17] ({C20 diacid-γGlu}-KCNTATCATQRLAEFLRHSSPNFGAIPSSTNVGHNTY-NH2; disulfide 2-7), for which the “Ratio hCT/hAmylin funct.” value is, setting by setting: under setting [1], 8.8; under setting [2], 8.8; under setting [3], 8.8; under setting [4], 8.8; under setting [5], 8.8.

Take `CC(C)C[C@H](NC(=O)[C@H](CCCNC(=N)N)NC(=O)[C@H](CCC(N)=O)NC(=O)[C@@H](NC(=O)[C@H](C)NC(=O)[C@@H]1CSSC[C@H](NC(=O)[C@@H](N)CCCCNC(=O)CC[C@H](NC(=O)CC[C@H](NC(=O)CCCCCCCCCCCCCCCCCCC(=O)O)C(=O)O)C(=O)O)C(=O)N[C@@H](CC(N)=O)C(=O)N[C@@H]([C@@H](C)O)C(=O)N[C@@H](C)C(=O)N[C@@H]([C@@H](C)O)C(=O)N1)[C@@H](C)O)C(=O)N[C@@H](C)C(=O)N[C@@H](CC(=O)O)C(=O)N[C@@H](Cc1ccccc1)C(=O)N[C@@H](CC(C)C)C(=O)N[C@@H](CCCNC(=N)N)C(=O)N[C@@H](Cc1c[nH]cn1)C(=O)N[C@@H](CO)C(=O)N[C@@H](CO)C(=O)N1CCC[C@H]1C(=O)N[C@@H](CC(N)=O)C(=O)N[C@@H](Cc1ccccc1)C(=O)NCC(=O)N[C@@H](C)C(=O)N1CCC[C@H]1C(=O)N[C@@H](CC(C)C)C(=O)N[C@@H](CO)C(=O)N[C@@H](CO)C(=O)N[C@H](C(=O)N[C@@H](CC(N)=O)C(=O)N[C@H](C(=O)NCC(=O)N[C@@H](CO)C(=O)N[C@@H](CC(=O)O)C(=O)N[C@H](C(=O)N[C@@H](Cc1ccc(O)cc1)C(N)=O)[C@@H](C)O)C(C)C)[C@@H](C)O` [Example 1] (H-K([γGlu-γGlu-C20 diacid])CNTATCATQRLADFLRHSSPNFGAPLSSTNVGSDTY-NH2; disulfide 2-7; N-terminus assumed): the “Ratio hCT/hAmylin funct.” value by setting is: under setting [1], 12.0; under setting [2], 12.0; (hCTR funct. EC50 divided by hAmylin-R funct. EC50) 12.0.

In the case of `CC[C@H](C)[C@H](NC(=O)[C@H](C)NC(=O)CNC(=O)[C@H](Cc1ccccc1)NC(=O)[C@H](CC(N)=O)NC(=O)[C@@H]1CCCN1C(=O)[C@H](CO)NC(=O)[C@H](CO)NC(=O)[C@H](Cc1c[nH]cn1)NC(=O)[C@H](CCCNC(=N)N)NC(=O)[C@H](CC(C)C)NC(=O)[C@H](Cc1ccccc1)NC(=O)[C@H](CO)NC(=O)[C@H](C)NC(=O)[C@H](CC(C)C)NC(=O)[C@H](CCCNC(=N)N)NC(=O)[C@H](CCC(N)=O)NC(=O)[C@@H](NC(=O)[C@H](C)NC(=O)[C@@H]1CSSC[C@H](NC(=O)[C@@H](N)CCCCNC(=O)CC[C@H](NC(=O)CC[C@H](NC(=O)CCCCCCCCCCCCCCCCCCC(=O)O)C(=O)O)C(=O)O)C(=O)N[C@@H](CC(N)=O)C(=O)N[C@@H]([C@@H](C)O)C(=O)N[C@@H](C)C(=O)N[C@@H]([C@@H](C)O)C(=O)N1)[C@@H](C)O)C(=O)N1CCC[C@H]1C(=O)N[C@@H](CO)C(=O)N[C@@H](CO)C(=O)N[C@H](C(=O)N[C@@H](CC(N)=O)C(=O)N[C@H](C(=O)NCC(=O)N1CCC[C@H]1C(=O)N[C@@H](CCC(=O)O)C(=O)N[C@H](C(=O)N[C@@H](Cc1ccc(O)cc1)C(N)=O)[C@@H](C)O)C(C)C)[C@@H](C)O` [Example 120] (H-K([γGlu-γGlu-C20 diacid])CNTATCATQRLASFLRHSSPNFGAIPSSTNVGPETY-NH2; disulfide 2-7 (inferred); N-terminus and C-terminus assumed), the “Ratio hCT/hAmylin funct.” value came out at 8.1 under setting [1], 8.1 under setting [2], 8.1 under setting [4] and 8.1 under setting [5].
